Assay [1] addresses E. coli DnaK fragment aa397-439 (conventional peptide binding pocket) (Escherichia coli, UniProt P0A6Y8). Nature of the assay: Fluorescence polarization with DnaK fragment aa397-439. To be noted: PBS; qualitative. For orientation: Polarisation of emitted light reports the rotation of a fluorescent probe.
Assay [2] concerns the target E. coli DnaK aa513-551 (A-B helix fragment) (Escherichia coli, UniProt P0A6Y8). Nature of the assay: Fluorescence polarization with DnaK A-B helix fragment. It is filed as binding.
A further assay addresses DnaK (Escherichia coli, UniProt P0A6Y8). The assay is described as follows: Fluorescence polarization binding of fluorescein-labeled peptides to DnaK. On the set-up: purchased; host or cells: E. coli; species or system E. coli. The settings on record: for minipolarization value: peptide 1 nM, blank about 62. The source says: (§1) All solid-phase assays that separate the bound form of the ligand from the free form are suspect.
(§2) In one example, three fluorescein-labeled peptides were synthesized with the fluorescein label attached at the N-terminus of the peptide: fluorescein-K-pyrrhocoricin (N-F-pyrrhocoricin), fluorescein-K-drosocin (unglycosylated; N-F-drosocin), and fluorescein-K-apidaecin (N-F-apidaecin). […] Biophys. Acta, 1426: 459-467; McManus, A. et al, (1999) Biochemistry, 38: 705-714].
(§3) During fluorescence polarization, positive signals are detected only when the free rotation of the fluorescein attached to one of the interacting partners is slowed down due to binding to the other partner when this label is not exceedingly far from the site of interaction. If the label is placed too far from the binding site, the flexibility of peptide-like structures will resume free rotation of the fluorescein moiety, resulting in no polarization anisotropy, even if positive binding occurs. As a negative control fluorescein-labeled peptide, a fragment of the […] of human tubulin was used [Otvos, L., Jr. et al, (1998) Protein and Peptide Lett., 5: 207-213].
The same heat shock proteins and LPS preparations were used as in the Western-blotting, except DnaJ was not studied. Ras was used as a negative control protein. The fluorescein-K-pyrrhocoricin—DnaK binding study was repeated with an additional DnaK preparation, purchased from another source. The labeled peptides were used in fixed 1 nM concentrations. […] The initial concentration of LPS was set to 0.5 mg/ml, and dilutions were made until 0.031 mg/ml.

For assay [3], the target named is E. coli DnaK fragment aa583-615 (D-E helix hinge) (Escherichia coli, UniProt P0A6Y8). Nature of the assay: Fluorescence polarization with synthetic DnaK fragment aa583-615. The settings on record: Tris HCl at pH 8.0; labeled peptide 1 nM. The format is binding. The method, then: The binding of the synthetic DnaK fragments to their fluorescein-labeled pyrrhocoricin counterparts was also assessed in solution, by fluorescence polarization [Lundblad, J. R. et al, (1996) Mol. Endocrinol. 10: 607-612]. For these experiments, the unlabeled peptides were serially diluted in PBS (pH 7.4) or 0.1 M Tris-HCl (pH 8.0) containing 0.1 M ethylene-diamine-tetraacetic acid (EDTA) in 50 μL final volume in 6×50 mm disposable glass borosilicate tubes. The fluoresceinated peptides were added to each tube in a 50 μL aliquot to a final concentration of 1 nM and tubes were incubated at 37° C. for 5 minutes. The extent of fluorescence anisotropy was measured on a Beacon 2000 fluorescence polarization instrument (PanVera, Madison, Wis.) and calculated as millipolarization values. The filters used were 485 nm excitation and 535 nm emission with 3 nm band width. Non-linear curve fitting was done by using a dose-response logistical transition [y=a0+a1/(1+x/a2)^a^3] and the Levenberg-Marquardt Algorithm within the SlideWrite software package. The provided Kd value (a2 coefficient) was calculated by the program.
To quantitatively characterize the pyrrhocoricin—D-E helix interaction, the complete binding curves were measured for E. coli DnaK fragments aa583-615 and aa588-615, both of SEQ ID NO: 10.

Assay [4] addresses blocked E. coli DnaK fragment aa591-615 (Escherichia coli, UniProt P0A6Y8). It is filed as binding. The settings on record: PBS; qualitative.
For another assay, the target named is Hsp70 (Homo sapiens, UniProt P0DMV8). The assay is described as follows: Fluorescence polarization binding of fluorescein-labeled peptides to Hsp70. On the set-up: purchased; host or cells: E. coli. To be noted: Hsp70 at both concentrations (4 μM and 2 μM); peptide 1 nM; blank about 62. The source says: (§4) All solid-phase assays that separate the bound form of the ligand from the free form are suspect. Therefore, in the next step, the binding of labeled peptides to the heat shock/chaperone proteins and to LPS was observed by fluorescence polarization.
(§5) In one example, three fluorescein-labeled peptides were synthesized with the fluorescein label attached at the N-terminus of the peptide: fluorescein-K-pyrrhocoricin (N-F-pyrrhocoricin), fluorescein-K-drosocin (unglycosylated; N-F-drosocin), and fluorescein-K-apidaecin (N-F-apidaecin). A C-terminally labeled peptide was also made, i.e., pyrrhocoricin-K-fluorescein (C-F-pyrrhocoricin). The C-terminally labeled pyrrhocoricin peptide (C-F-pyrrhocoricin) was made to investigate the possibility of spatial separation of the active sites. From earlier experiments, it was clear that pyrrhocoricin and drosocin bind to the receptor(s) with their two terminal domains [Hoffmann, R. et al, (1999) Biochim. Biophys. Acta, 1426: 459-467; McManus, A. et al, (1999) Biochemistry, 38: 705-714].
(§6) During fluorescence polarization, positive signals are detected only when the free rotation of the fluorescein attached to one of the interacting partners is slowed down due to binding to the other partner when this label is not exceedingly far from the site of interaction. […]

The next assay addresses GroEL (Escherichia coli, UniProt P0A6F5). The assay is described as follows: Fluorescence polarization binding of fluorescein-labeled peptides to GroEL. To be noted: peptide 1 nM, blank about 62. Details: purchased; host or cells: E. coli; species or system E. coli.
Description: as §1, §2, §3
The same heat shock proteins and LPS preparations were used as in the Western-blotting, except DnaJ was not studied. Ras was used as a negative control protein. […]

The next assay deals with Ras. The assay is described as follows: Fluorescence polarization binding of fluorescein-labeled peptides to Ras (negative control protein). The settings on record: Ras at both concentrations (4 μM and 2 μM); peptide 1 nM; blank about 62.
Description: as §4, §5, §6

In a further assay the target is E. coli DnaK aa596-637 (Escherichia coli, UniProt P0A6Y8). Nature of the assay: Fluorescence polarization with DnaK extreme C-terminus fragment. It is filed as binding. To be noted: PBS; qualitative.
For the next assay, the target named is T1, GroES (Escherichia coli, UniProt P0A6F9).
T1 construct: purchased; host or cells: E. coli
The assay is described as follows: Fluorescence polarization binding of fluorescein-labeled peptides to GroES. To be noted: GroES at both concentrations (4 μM and 2 μM); peptide 1 nM; blank about 62.
Description: as §4, §5, §6

The target of assay [5] is T2, S. aureus DnaK 554-585 (D-E helix fragment) (Staphylococcus aureus, UniProt P45554).
T2 sequence (P45554 554-585 limits assumed): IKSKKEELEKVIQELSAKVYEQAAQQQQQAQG
Nature of the assay: Fluorescence polarization with S. aureus DnaK D-E helix fragment. The format is binding.

For another assay, the target named is T3, Hsp60 (Homo sapiens, UniProt P10809).
T3 construct: purchased; host or cells: E. coli
Nature of the assay: Fluorescence polarization binding of fluorescein-labeled peptides to Hsp60. To be noted: peptide 1 nM, blank about 62.
Description: as §4, §5, §6

For another assay, the target named is T4, GrpE (Escherichia coli, UniProt P09372).
T4 construct: purchased; host or cells: E. coli
The assay is described as follows: Fluorescence polarization binding of fluorescein-labeled peptides to GrpE. To be noted: GrpE at both concentrations (4 μM and 2 μM); peptide 1 nM; blank about 62.
Description: as §4, §5, §6

Residues, ends and D or L forms follow the SMILES beside them. *: point of attachment. 5FAM = O=C1OC2(c3ccc(O)cc3Oc3cc(O)ccc32)c2ccc(C(=O)*)cc21

Chain of DnaK (P0A6Y8 whole entry): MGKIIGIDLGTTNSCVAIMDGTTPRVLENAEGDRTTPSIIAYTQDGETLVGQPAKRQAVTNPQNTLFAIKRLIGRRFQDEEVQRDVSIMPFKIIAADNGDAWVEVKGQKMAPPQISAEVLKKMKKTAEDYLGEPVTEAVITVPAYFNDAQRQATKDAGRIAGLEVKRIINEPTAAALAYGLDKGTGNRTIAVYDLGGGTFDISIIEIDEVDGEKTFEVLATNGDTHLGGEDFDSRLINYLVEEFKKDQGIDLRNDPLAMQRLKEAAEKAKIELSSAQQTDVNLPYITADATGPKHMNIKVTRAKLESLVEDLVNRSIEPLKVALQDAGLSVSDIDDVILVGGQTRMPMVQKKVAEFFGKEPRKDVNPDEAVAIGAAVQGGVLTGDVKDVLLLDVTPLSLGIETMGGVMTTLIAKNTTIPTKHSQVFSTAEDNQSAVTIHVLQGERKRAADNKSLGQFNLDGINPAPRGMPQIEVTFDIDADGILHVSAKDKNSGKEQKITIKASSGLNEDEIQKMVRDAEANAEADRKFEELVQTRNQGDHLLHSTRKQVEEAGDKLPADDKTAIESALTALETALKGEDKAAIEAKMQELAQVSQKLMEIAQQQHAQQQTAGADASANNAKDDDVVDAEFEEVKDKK
T3 sequence (P10809 27-573): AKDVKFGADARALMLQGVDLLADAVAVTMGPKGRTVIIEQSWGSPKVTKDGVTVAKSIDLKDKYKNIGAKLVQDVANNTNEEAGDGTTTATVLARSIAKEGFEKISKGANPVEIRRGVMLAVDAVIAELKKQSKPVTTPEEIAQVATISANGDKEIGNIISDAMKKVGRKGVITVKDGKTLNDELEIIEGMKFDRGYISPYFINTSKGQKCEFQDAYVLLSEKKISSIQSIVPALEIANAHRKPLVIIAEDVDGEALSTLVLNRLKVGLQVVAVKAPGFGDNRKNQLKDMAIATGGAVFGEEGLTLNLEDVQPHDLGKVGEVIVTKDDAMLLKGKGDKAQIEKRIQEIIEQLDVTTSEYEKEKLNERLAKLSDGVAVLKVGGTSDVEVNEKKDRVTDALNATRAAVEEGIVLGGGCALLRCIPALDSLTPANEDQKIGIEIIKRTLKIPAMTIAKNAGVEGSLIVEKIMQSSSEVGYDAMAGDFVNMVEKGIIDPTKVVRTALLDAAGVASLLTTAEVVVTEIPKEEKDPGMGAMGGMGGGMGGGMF
Chain of GroEL (P0A6F5 2-548 limits assumed): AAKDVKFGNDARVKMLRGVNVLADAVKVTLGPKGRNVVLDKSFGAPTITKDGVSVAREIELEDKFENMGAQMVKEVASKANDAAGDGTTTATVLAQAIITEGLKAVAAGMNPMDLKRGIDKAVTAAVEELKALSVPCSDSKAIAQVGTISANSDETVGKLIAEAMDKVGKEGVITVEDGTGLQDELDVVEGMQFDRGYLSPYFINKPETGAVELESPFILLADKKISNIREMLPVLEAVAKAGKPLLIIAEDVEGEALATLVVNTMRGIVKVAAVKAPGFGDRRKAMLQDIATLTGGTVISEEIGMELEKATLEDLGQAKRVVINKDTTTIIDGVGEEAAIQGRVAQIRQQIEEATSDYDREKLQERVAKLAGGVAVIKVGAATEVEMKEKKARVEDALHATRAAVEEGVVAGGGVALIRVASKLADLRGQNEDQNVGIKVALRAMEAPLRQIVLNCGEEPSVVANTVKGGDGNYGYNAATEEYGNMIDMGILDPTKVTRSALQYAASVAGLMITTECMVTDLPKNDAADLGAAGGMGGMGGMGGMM
Chain of E. coli DnaK aa513-551 (A-B helix fragment) (P0A6Y8 514-552 limits assumed): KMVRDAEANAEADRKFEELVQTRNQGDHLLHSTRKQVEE
Chain of E. coli DnaK fragment aa397-439 (conventional peptide binding pocket) (P0A6Y8 397-439): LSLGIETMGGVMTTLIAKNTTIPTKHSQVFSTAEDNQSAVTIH
Chain of E. coli DnaK fragment aa583-615 (D-E helix hinge) (P0A6Y8 584-616): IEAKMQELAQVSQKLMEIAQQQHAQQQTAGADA
T4 sequence (P09372 whole entry): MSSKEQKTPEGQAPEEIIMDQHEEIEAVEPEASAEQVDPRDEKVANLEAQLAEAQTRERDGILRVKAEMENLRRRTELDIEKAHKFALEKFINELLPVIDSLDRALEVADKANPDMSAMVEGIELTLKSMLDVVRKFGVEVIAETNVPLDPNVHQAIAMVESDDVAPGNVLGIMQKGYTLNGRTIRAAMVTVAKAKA
Chain of blocked E. coli DnaK fragment aa591-615 (P0A6Y8 592-616 limits assumed): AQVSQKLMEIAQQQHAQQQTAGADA
T1 sequence (P0A6F9 whole entry): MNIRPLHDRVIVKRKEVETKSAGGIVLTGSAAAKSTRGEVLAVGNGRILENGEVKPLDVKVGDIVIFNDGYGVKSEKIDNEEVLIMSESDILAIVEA
Chain of E. coli DnaK aa596-637 (P0A6Y8 597-638): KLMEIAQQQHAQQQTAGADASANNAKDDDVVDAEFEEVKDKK
Chain of Hsp70 (P0DMV8 whole entry): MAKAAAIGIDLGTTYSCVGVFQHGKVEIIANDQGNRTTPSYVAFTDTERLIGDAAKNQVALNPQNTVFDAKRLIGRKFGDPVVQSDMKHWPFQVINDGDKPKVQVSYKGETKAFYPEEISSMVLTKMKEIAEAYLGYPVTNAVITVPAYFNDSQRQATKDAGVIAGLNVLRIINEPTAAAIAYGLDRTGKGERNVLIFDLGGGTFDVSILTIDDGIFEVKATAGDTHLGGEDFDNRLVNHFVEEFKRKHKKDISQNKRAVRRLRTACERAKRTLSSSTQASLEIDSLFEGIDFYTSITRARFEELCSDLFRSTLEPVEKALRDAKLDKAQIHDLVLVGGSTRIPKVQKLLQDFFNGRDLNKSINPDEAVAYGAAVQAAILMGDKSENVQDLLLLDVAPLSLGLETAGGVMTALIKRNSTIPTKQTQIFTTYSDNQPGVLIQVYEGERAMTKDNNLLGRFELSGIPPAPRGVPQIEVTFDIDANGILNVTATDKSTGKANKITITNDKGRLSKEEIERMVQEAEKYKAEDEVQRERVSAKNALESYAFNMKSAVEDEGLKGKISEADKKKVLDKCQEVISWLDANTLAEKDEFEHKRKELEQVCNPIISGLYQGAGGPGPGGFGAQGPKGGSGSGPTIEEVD

With `CC[C@H](C)[C@H](NC(=O)[C@@H]1CCCN1C(=O)[C@H](CCCNC(=N)N)NC(=O)[C@@H]1CCCN1C(=O)[C@@H]1CCCN1C(=O)[C@@H](NC(=O)[C@@H]1CCCN1C(=O)[C@H](CCCNC(=N)N)NC(=O)[C@@H]1CCCN1C(=O)[C@H](CC(C)C)NC(=O)[C@H](Cc1ccc(O)cc1)NC(=O)[C@H](CO)NC(=O)CNC(=O)[C@H](CCCCN)NC(=O)[C@H](CC(=O)O)NC(=O)[C@@H](NC(=O)[C@H](CCCCN)NC(=O)c1ccc2c(c1)C(=O)OC21c2ccc(O)cc2Oc2cc(O)ccc21)C(C)C)[C@@H](C)O)C(=O)N[C@@H](Cc1ccc(O)cc1)C(=O)N[C@@H](CC(N)=O)C(=O)N[C@@H](CCCNC(=N)N)C(=O)N[C@@H](CC(N)=O)C(=O)O` [N—F-pyrrhocoricin] (5FAM-KVDKGSYLPRPTPPRPIYNRN-OH; C-terminus assumed), in [1], the “binding to fragment aa397-439” value is given as “weakly”. Besides, the “binding to E. coli A-B helix fragment” value in assay [2] (PBS, qualitative) was “No interaction above the level of the negative control”; in [2] (Tris HCl at pH 8.0), “did not bind”. On DnaK (1 nM peptide bound to DnaK), the “millipolarization values higher over the background” value came out at 50%. Further, the minipolarization value result on DnaK (2 μM DnaK) is listed as “about 95”; on DnaK (4 μM DnaK), “about 100”; at Hsp70, “under 62”; at GroEL (2 μM Gro EL), “about 85”; on GroEL (4 μM Gro EL), “over 100”; in the assay on Ras, “under 62”. The minipolarization value result on GroES is recorded as “under 62”; on Hsp60 (2 μM Hsp60), “about 62”; on Hsp60 (4 μM Hsp60), “about 90”; on GrpE, “under 62”. In addition, in [3], the “binding to E. coli D-E helix hinge region aa583-615” value was “concentration-dependent binding”. The “binding to blocked E. coli DnaK fragment aa591-615” value in [4] is listed as “bound strongly”. Besides, the “binding to E. coli extreme C-terminus fragment” value on E. coli DnaK aa596-637 is recorded as “No interaction above the level of the negative control”. In addition, the “binding to D-E helix fragment of S. aureus DnaK” value in [5] (PBS, qualitative) is given as “No interaction above the level of the negative control”. The “binding to S. aureus D-E helix fragment” value in [5] (Tris HCl at pH 8.0) was “did not bind”.

The values above are taken from patent US20060240494A1, “Biocidal molecules, macromolecular targets and methods of production and use” (priority 2000, published 2006).
